Experimental data from US9944624B2, “Substituted amino triazoles useful as human chitinase inhibitors” (OncoArendi Therapeutics S.A., priority 2015, dated 2018).
pIC50: −log10 of the molar value.

Assays:
recombinant human CHIT1 = recombinant human CHIT1 (Homo sapiens (Human), UniProt Q13231); test: Human CHIT1 activity assay (fluorescent 4MU substrate); type: biochemical; conditions: citrate buffer pH 5.2, 37° C., 60 minutes; substrate 4-methylumbelliferyl β-D-N,N′,N″-triacetylchitotriose; read-out: Activity on hCHIT1, IC50
Chain of recombinant human CHIT1 (Q13231 22-466): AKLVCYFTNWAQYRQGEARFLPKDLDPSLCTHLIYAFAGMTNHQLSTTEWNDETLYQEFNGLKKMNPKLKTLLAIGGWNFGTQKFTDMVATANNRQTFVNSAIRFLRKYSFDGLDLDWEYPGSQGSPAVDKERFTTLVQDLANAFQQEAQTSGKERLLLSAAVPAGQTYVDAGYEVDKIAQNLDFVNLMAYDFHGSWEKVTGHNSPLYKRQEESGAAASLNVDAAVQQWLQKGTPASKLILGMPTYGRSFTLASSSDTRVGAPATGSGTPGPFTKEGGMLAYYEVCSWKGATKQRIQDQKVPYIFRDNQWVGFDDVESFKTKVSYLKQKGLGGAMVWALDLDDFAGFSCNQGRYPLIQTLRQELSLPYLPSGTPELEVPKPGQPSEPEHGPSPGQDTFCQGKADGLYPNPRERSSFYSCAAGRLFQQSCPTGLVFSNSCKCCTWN

recombinant human AMCase = recombinant human AMCase (Homo sapiens (Human), UniProt Q9BZP6); test: Human AMCase activity assay (fluorescent 4MU substrate); type: biochemical; conditions: citrate buffer pH 5.2, 37° C., 60 minutes; substrate 4-methylumbelliferyl B-D-N,N′-diacetylchitobioside hydrate; read-out: Activity on hAMCase, IC50
Chain of recombinant human AMCase (Q9BZP6 22-476): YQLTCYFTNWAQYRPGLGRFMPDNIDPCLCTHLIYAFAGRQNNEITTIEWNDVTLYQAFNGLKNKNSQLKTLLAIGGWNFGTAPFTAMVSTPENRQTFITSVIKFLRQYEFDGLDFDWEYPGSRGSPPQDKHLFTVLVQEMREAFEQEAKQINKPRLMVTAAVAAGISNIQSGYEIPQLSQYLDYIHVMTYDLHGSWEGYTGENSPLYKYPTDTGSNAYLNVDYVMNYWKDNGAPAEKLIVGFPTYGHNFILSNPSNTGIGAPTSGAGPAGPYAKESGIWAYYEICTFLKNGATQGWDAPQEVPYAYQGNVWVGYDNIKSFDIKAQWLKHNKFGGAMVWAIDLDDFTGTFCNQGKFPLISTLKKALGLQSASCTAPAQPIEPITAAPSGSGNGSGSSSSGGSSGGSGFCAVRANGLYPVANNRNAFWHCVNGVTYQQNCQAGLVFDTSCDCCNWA

Row | SMILES | pIC50 (recombinant human CHIT1) | pIC50 (recombinant human AMCase)
1 | CO[C@H]1C[C@H](Cc2ccc(Cl)cc2)N(C2CCN(c3nnc(N)[nH]3)CC2)C1 [Example 46, 5-(4-((2S,4S)-2-(4-chlorobenzyl)-4-methoxypyrrolidin-1-yl)piperidin-1-yl)-4H-1,2,4-triazol-3-amine] | > 7.00 | –
2 | CCOC[C@H]1CN(C2CCN(c3nnc(N)[nH]3)CC2)[C@@H](Cc2ccc(Cl)cc2)CO1 [Example 11, 5-(4-((2R,5S)-5-(4-chlorobenzyl)-2-(ethoxymethyl)morpholino)piperidin-1-yl)-4H-1,2,4-triazol-3-amine] | – | > 7.00
3 | CN1C[C@H](Cc2ccc(Cl)cc2)N(C2CCN(c3nnc(N)[nH]3)CC2)Cc2cc(Cl)ccc21 [Example 58, (S)-5-(4-(7-chloro-3-(4-chlorobenzyl)-1-methyl-2,3-dihydro-1H-benzo[e][1,4]diazepin-4(5H)-yl)piperidin-1-yl)-4H-1,2,4-triazol-3-amine] | 6.00 to 7.00 | > 7.00
4 | Nc1nnc(N2CCC(N3CCOCC3Cc3ccc(Cl)cc3)CC2)[nH]1 (centres unmarked) [Example 2, 5-(4-(3-(4-chlorobenzyl)morpholino)piperidin-1-yl)-4H-1,2,4-triazol-3-amine] | 6.00 to 7.00 | –
5 | CCOC(=O)C1CC[C@H](Cc2ccc(Cl)cc2)N(C2CCN(c3nnc(N)[nH]3)CC2)C1 (stereo partly drawn) [Example 16, ethyl (6R)-1′-(5-amino-4H-1,2,4-triazol-3-yl)-6-(4-chlorobenzyl)-[1,4′-bipiperidine]-3-carboxylate] | – | > 7.00
6 | Nc1nnc(N2CCC(N3C[C@@H](F)[C@@H]3Cc3ccc(Cl)cc3)CC2)[nH]1 [Example 23, 5-(4-((2S,3R)-2-(4-chlorobenzyl)-3-fluoroazetidin-1-yl)piperidin-1-yl)-4H-1,2,4-triazol-3-amine] | 4.00 to 5.00 | –
7 | Nc1nnc(N2CCC(N3Cc4ccccc4OC[C@@H]3Cc3ccc(Cl)cc3)CC2)[nH]1 [Example 59, (S)-5-(4-(3-(4-chlorobenzyl)-2,3-dihydrobenzo[f][1,4]oxazepin-4(5H)-yl)piperidin-1-yl)-4H-1,2,4-triazol-3-amine] | 6.00 to 7.00 | > 7.00
8 | CO[C@@H]1C[C@H](Cc2ccc(Cl)cc2)N(C2CCN(c3n[nH]c(N)n3)CC2)C1 [Example 51, 3-(4-((2S,4R)-2-(4-chlorobenzyl)-4-methoxypyrrolidin-1-yl)piperidin-1-yl)-1H-1,2,4-triazol-5-amine] | > 7.00 | –
9 | CO[C@H]1CN(C2CCN(c3nnc(N)[nH]3)CC2)[C@H]1Cc1ccc(Cl)cc1 [Example 22, 5-(4-((2S,3S)-2-(4-chlorobenzyl)-3-methoxyazetidin-1-yl)piperidin-1-yl)-4H-1,2,4-triazol-3-amine] | 6.00 to 7.00 | –
10 | Nc1nnc(N2CCC(N3Cc4ccncc4OC[C@@H]3Cc3ccc(Cl)cc3)CC2)[nH]1 [Example 63, (S)-5-(4-(3-(4-chlorobenzyl)-2,3-dihydropyrido[4,3-f][1,4]oxazepin-4(5H)-yl)piperidin-1-yl)-4H-1,2,4-triazol-3-amine] | 5.00 to 6.00 | > 7.00
11 | Nc1nnc(N2CCC(N3CCCCC3C(O)c3ccc(Cl)cc3)CC2)[nH]1 (centres unmarked) [Example 21, (1′-(5-amino-4H-1,2,4-triazol-3-yl)-[1,4′-bipiperidin]-2-yl)(4-chlorophenyl)methanol] | 4.00 to 5.00 | –
12 | Nc1nnc(N2CCC(N3CCOC[C@@H]3Cc3ccc(Br)cc3)CC2)[nH]1 [Example 3, (S)-5-(4-(3-(4-bromobenzyl)morpholino)piperidin-1-yl)-4H-1,2,4-triazol-3-amine] | – | > 7.00
13 | COC(C)(C)[C@H]1CN(C2CCN(c3nnc(N)[nH]3)CC2)[C@@H](Cc2ccc(Cl)cc2)CO1 [Example 14, 5-(4-((2R,5S)-5-(4-chlorobenzyl)-2-(2-methoxypropan-2-yl)morpholino)piperidin-1-yl)-4H-1,2,4-triazol-3-amine] | – | > 7.00
14 | Nc1nnc(N2CCC(N3CC(C(=O)O)CC[C@@H]3Cc3ccc(Cl)cc3)CC2)[nH]1 (stereo partly drawn) [Example 17, (6R)-1′-(5-amino-4H-1,2,4-triazol-3-yl)-6-(4-chlorobenzyl)-[1,4′-bipiperidine]-3-carboxylic acid] | – | > 7.00
15 | CC1(C(=O)O)CC[C@H](Cc2ccc(Cl)cc2)N(C2CCN(c3nnc(N)[nH]3)CC2)C1 (stereo partly drawn) [Example 18, (6R)-1′-(5-amino-4H-1,2,4-triazol-3-yl)-6-(4-chlorobenzyl)-3-methyl-[1,4′-bipiperidine]-3-carboxylic acid] | – | > 7.00
16 | Nc1nnc(N2CCC(N3CCOC[C@@H]3Cc3ccc(Cl)cc3)CC2)[nH]1 [Example 1, (S)-5-(4-(3-(4-chlorobenzyl)morpholino)piperidin-1-yl)-4H-1,2,4-triazol-3-amine] | – | > 7.00
17 | Nc1nnc(N2CCC(N3CCCC[C@@H]3Cc3ccc(Cl)cc3)CC2)[nH]1 [Example 15, (R)-5-(2-(4-chlorobenzyl)-[1,4′-bipiperidin]-1′-yl)-4H-1,2,4-triazol-3-amine] | – | > 7.00

The remaining lines, values ahead:

Row | pIC50 (recombinant human CHIT1) | pIC50 (recombinant human AMCase) | SMILES
18 | – | > 7.00 | C[C@H]1CN(C2CCN(c3nnc(N)[nH]3)CC2)[C@@H](Cc2ccc(Cl)cc2)CN1CC(=O)O [Example 41, 2-((2S,5S)-4-(1-(5-amino-4H-1,2,4-triazol-3-yl)piperidin-4-yl)-5-(4-chlorobenzyl)-2-methylpiperazin-1-yl)acetic acid]
19 | 4.00 to 5.00 | – | CC(C)CN1CCN(C2CCN(c3nnc(N)[nH]3)CC2)[C@@H](Cc2ccc(Cl)cc2)C1 [Example 29, (S)-5-(4-(2-(4-chlorobenzyl)-4-isobutylpiperazin-1-yl)piperidin-1-yl)-4H-1,2,4-triazol-3-amine]
20 | 5.00 to 6.00 | > 7.00 | CN1C[C@H](Cc2ccc(Cl)cc2)N(C2CCN(c3nnc(N)[nH]3)CC2)C[C@@H]1CC1CCCCC1 [Example 32, 5-(4-((2S,5S)-2-(4-chlorobenzyl)-5-(cyclohexylmethyl)-4-methylpiperazin-1-yl)piperidin-1-yl)-4H-1,2,4-triazol-3-amine]
21 | 6.00 to 7.00 | > 7.00 | C=C1COC[C@H](Cc2ccc(Cl)cc2)N(C2CCN(c3nnc(N)[nH]3)CC2)C1 [Example 55, (S)-5-(4-(3-(4-chlorobenzyl)-6-methylene-1,4-oxazepan-4-yl)piperidin-1-yl)-4H-1,2,4-triazol-3-amine]
22 | 6.00 to 7.00 | > 7.00 | CC1(O)C[C@H](Cc2ccc(Cl)cc2)N(C2CCN(c3nnc(N)[nH]3)CC2)C1 (stereo partly drawn) [Example 48, (5S)-1-(1-(5-amino-4H-1,2,4-triazol-3-yl)piperidin-4-yl)-5-(4-chlorobenzyl)-3-methylpyrrolidin-3-ol]
23 | – | > 7.00 | COC(=O)CN1C[C@H](Cc2ccc(Cl)cc2)N(C2CCN(c3nnc(N)[nH]3)CC2)C[C@@H]1C [Example 40, methyl 2-((2S,5S)-4-(1-(5-amino-4H-1,2,4-triazol-3-yl)piperidin-4-yl)-5-(4-chlorobenzyl)-2-methylpiperazin-1-yl)acetate]
24 | 6.00 to 7.00 | > 7.00 | Nc1nnc(N2CCC(N3Cc4cc(F)ccc4OC[C@@H]3Cc3ccc(Cl)cc3)CC2)[nH]1 [Example 60, (S)-5-(4-(3-(4-chlorobenzyl)-7-fluoro-2,3-dihydrobenzo[f][1,4]oxazepin-4(5H)-yl)piperidin-1-yl)-4H-1,2,4-triazol-3-amine]
25 | 5.00 to 6.00 | > 7.00 | CC(C)C[C@H]1CN(C2CCN(c3nnc(N)[nH]3)CC2)[C@@H](Cc2ccc(Cl)cc2)CN1C [Example 33, 5-(4-((2S,5S)-2-(4-chlorobenzyl)-5-isobutyl-4-methylpiperazin-1-yl)piperidin-1-yl)-4H-1,2,4-triazol-3-amine]
26 | 5.00 to 6.00 | – | C[C@H]1CN(C2CCN(c3nnc(N)[nH]3)CC2)[C@@H](Cc2ccc(Cl)cc2)CN1C [Example 27, 5-(4-((2S,5S)-2-(4-chlorobenzyl)-4,5-dimethylpiperazin-1-yl)piperidin-1-yl)-4H-1,2,4-triazol-3-amine]
27 | 4.00 to 5.00 | > 7.00 | Nc1nnc(N2CCC(N3Cc4cc(Cl)cc(Cl)c4OC[C@@H]3Cc3ccc(Cl)cc3)CC2)[nH]1 [Example 62, (S)-5-(4-(7,9-dichloro-3-(4-chlorobenzyl)-2,3-dihydrobenzo[f][1,4]oxazepin-4(5H)-yl)piperidin-1-yl)-4H-1,2,4-triazol-3-amine]
28 | – | > 7.00 | Nc1nnc(N2CCC(N3C[C@@H]4CCCN4C[C@@H]3Cc3ccc(Cl)cc3)CC2)[nH]1 [Example 49, 5-(4-((3S,8aS)-3-(4-chlorobenzyl)hexahydropyrrolo[1,2-a]pyrazin-2(1H)-yl)piperidin-1-yl)-4H-1,2,4-triazol-3-amine]
29 | 5.00 to 6.00 | > 7.00 | CN1C[C@H](Cc2ccc(Cl)cc2)N(C2CCN(c3nnc(N)[nH]3)CC2)C[C@@H]1Cc1ccc(Cl)cc1 [Example 31, 5-(4-((2S,5S)-2,5-bis(4-chlorobenzyl)-4-methylpiperazin-1-yl)piperidin-1-yl)-4H-1,2,4-triazol-3-amine]
30 | 5.00 to 6.00 | > 7.00 | Nc1nnc(N2CCC(N3Cc4cc(Cl)ccc4OC[C@@H]3Cc3ccc(Cl)cc3)CC2)[nH]1 [Example 61, (S)-5-(4-(7-chloro-3-(4-chlorobenzyl)-2,3-dihydrobenzo[f][1,4]oxazepin-4(5H)-yl)piperidin-1-yl)-4H-1,2,4-triazol-3-amine]
31 | 6.00 to 7.00 | > 7.00 | CN1C[C@H](Cc2ccc(Cl)cc2)N(C2CCN(c3nnc(N)[nH]3)CC2)Cc2ccccc21 [Example 57, (S)-5-(4-(3-(4-chlorobenzyl)-1-methyl-2,3-dihydro-1H-benzo[e][1,4]diazepin-4(5H)-yl)piperidin-1-yl)-4H-1,2,4-triazol-3-amine]
32 | 5.00 to 6.00 | – | Nc1nnc(N2CCC(N3CCNC[C@@H]3Cc3ccc(Cl)cc3)CC2)[nH]1 [Example 26, (S)-5-(4-(2-(4-chlorobenzyl)piperazin-1-yl)piperidin-1-yl)-4H-1,2,4-triazol-3-amine]
